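Each compound was tested at five concentrations against cells in 96-well plates for 48 hours. GI50 marks 50% less growth. At the TGI there is no net growth.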
Assays:
Assay in all cases: NCI anticancer screen, dose series, 48 h
[1] = tested on: UO-31 renal
[2] = tested on: 786-0 renal
[3] = tested on: CCRF-CEM leukemia
[4] = tested on: HS 578T breast
[5] = tested on: MCF7 breast
[6] = tested on: UACC-62 melanoma
[7] = tested on: SK-MEL-28 melanoma
[8] = tested on: K-562 leukemia
[9] = tested on: BT-549 breast
[10] = tested on: M14 melanoma
[11] = tested on: T-47D breast
[12] = tested on: NCI-H23 lung
[13] = tested on: OVCAR-3 ovarian
[14] = tested on: HOP-62 NSCLC
[15] = tested on: DU-145 prostate
[16] = tested on: HT29 colon
[17] = tested on: SN12C renal
[18] = tested on: A549 NSCLC
[19] = tested on: NCI-H522 lung
[20] = tested on: LOX IMVI melanoma
[21] = tested on: MOLT-4 leukemia
[22] = tested on: UACC-257 melanoma
[23] = tested on: MDA-MB-435
[24] = tested on: SNB-75 CNS
[25] = tested on: EKVX NSCLC
[26] = tested on: SNB-19 CNS
[27] = tested on: A498 renal
[28] = tested on: SK-MEL-5 melanoma
[29] = tested on: HL-60(TB) leukemia
[30] = tested on: PC-3 prostate
[31] = tested on: ACHN renal
[32] = tested on: TK-10 renal
[33] = tested on: OVCAR-8 ovarian
[34] = tested on: MALME-3M melanoma
[35] = tested on: SK-MEL-2 melanoma
[36] = tested on: COLO 205 colon
[37] = tested on: CAKI-1 renal
[38] = tested on: SR leukemia
[39] = tested on: SF-295 CNS
[40] = tested on: HCC-2998 colon
[41] = tested on: NCI-H226 lung
[42] = tested on: SW-620 colon
[43] = tested on: RXF 393 renal
[44] = tested on: OVCAR-4 ovarian
[45] = tested on: KM12 colon
[46] = tested on: RPMI-8226 leukemia
[47] = tested on: SF-268 CNS
[48] = tested on: HCT-15 colon
[49] = tested on: OVCAR-5 ovarian
[50] = tested on: U251 CNS
[51] = tested on: MDA-MB-231 breast
[52] = tested on: SF-539 CNS
[53] = tested on: HCT-116 colon
[54] = tested on: SK-OV-3 ovarian
[55] = tested on: MDA-MB-468 breast
[56] = tested on: HOP-92 NSCLC
[57] = tested on: NCI-H460 lung
[58] = tested on: IGROV1 ovarian

## O=C(c1ccc(Cl)cc1)C1[C@H](c2ccc(Br)cc2)[C@@H](c2ccccc2)NC12C(=O)Nc1ccc(Cl)cc12 (stereo partly specified)
[1]
  GI50: 1.87 µM
  TGI: 8.68 µM
[2]
  GI50: 0.905 µM
  TGI: 1.89 µM
[3]
  GI50: 2.79 µM
  TGI: 13 µM
[4]
  GI50: 6.82 µM
  TGI: 23 µM
[5]
  GI50: 1.69 µM
  TGI: 6.82 µM
[6]
  GI50: 2.21 µM
  TGI: 9.1 µM
[7]
  GI50: 5.78 µM
  TGI: 12.2 µM
[8]
  GI50: 1.64 µM
  TGI: 11.7 µM
[9]
  GI50: 2.71 µM
  TGI: 9.33 µM
[10]
  GI50: 2.06 µM
  TGI: 8.82 µM
[11]
  GI50: 2.13 µM
  TGI: 9.66 µM
[12]
  GI50: 3.98 µM
  TGI: 11.7 µM
[13]
  GI50: 4.02 µM
  TGI: 11 µM
[14]
  GI50: 6.07 µM
  TGI: 13.1 µM
[15]
  GI50: 5.9 µM
  TGI: 13.6 µM
[16]
  GI50: 1.14 µM
  TGI: 3.22 µM
[17]
  GI50: 1.88 µM
  TGI: 7.17 µM
[18]
  GI50: 2.31 µM
  TGI: 9.53 µM
[19]
  GI50: 4.22 µM
  TGI: 11.8 µM
[20]
  GI50: 1.83 µM
  TGI: 10.1 µM
[21]
  GI50: 1.64 µM
  TGI: 8.26 µM
[22]
  GI50: 6.03 µM
  TGI: 12.8 µM
[23]
  GI50: 2.81 µM
  TGI: 9.75 µM
[24]
  GI50: 2.45 µM
  TGI: 11.6 µM
[25]
  GI50: 4.03 µM
  TGI: 11.7 µM
[26]
  GI50: 5.97 µM
  TGI: 13.2 µM
[27]
  GI50: 7.48 µM
  TGI: 15 µM
[28]
  GI50: 7.68 µM
  TGI: 15 µM
[29]
  GI50: 4.65 µM
  TGI: 16.7 µM
[30]
  GI50: 2.03 µM
  TGI: 9.08 µM
[31]
  GI50: 2.17 µM
  TGI: 8.6 µM
[32]
  GI50: 5.49 µM
  TGI: 12.2 µM
[33]
  GI50: 5.46 µM
  TGI: 12.8 µM
[34]
  GI50: 7.09 µM
  TGI: 13.9 µM
[35]
  GI50: 5.51 µM
  TGI: 12.1 µM
[36]
  GI50: 5.85 µM
  TGI: 14.2 µM
[37]
  GI50: 1.42 µM
  TGI: 8.42 µM
[38]
  GI50: 1.63 µM
  TGI: 9.55 µM
[39]
  GI50: 2.75 µM
  TGI: 10.1 µM
[40]
  GI50: 1.63 µM
  TGI: 7.02 µM
[41]
  GI50: 5.3 µM
  TGI: 12.2 µM
[42]
  GI50: 3.35 µM
  TGI: 10.7 µM
[43]
  GI50: 2.09 µM
  TGI: 9.12 µM
[44]
  GI50: 3.65 µM
  TGI: 11.9 µM
[45]
  GI50: 2.17 µM
  TGI: 9.98 µM
[46]
  GI50: 1.99 µM
  TGI: 13.2 µM
[47]
  GI50: 2.88 µM
  TGI: 11.2 µM
[48]
  GI50: 2.15 µM
  TGI: 8.97 µM
[49]
  GI50: 5.95 µM
  TGI: 12.6 µM
[50]
  GI50: 3.58 µM
  TGI: 10.7 µM
[51]
  GI50: 4.63 µM
  TGI: 11.3 µM
[52]
  GI50: 6.41 µM
  TGI: 13.1 µM
[53]
  GI50: 0.986 µM
  TGI: 3.01 µM
[54]
  GI50: 7.36 µM
  TGI: 17.3 µM
[55]
  GI50: 3.54 µM
  TGI: 11.4 µM
[56]
  GI50: 2.3 µM
  TGI: 9.31 µM
[57]
  GI50: 1.66 µM
  TGI: 7.49 µM
[58]
  GI50: 2.76 µM
  TGI: 9.96 µM
